Source: PMC8000724, “Trans-Epithelial Transport, Metabolism, and Biological Activity Assessment of the Multi-Target Lupin Peptide [sequence] (P5) and Its Metabolite [sequence] (P5-Met)” (Nutrients, 2021)

Assays:
HepG2 cells = experiment: Fluorescent LDL uptake by HepG2 cells; format: cell-based, human; details: mean ± SD
Procedure: HepG2 cells (3 × 10^4/well) were seeded in 96-well plates and kept in complete growth medium for 2 days before treatment. The third day, cells were washed with PBS and then starved overnight (O/N) in DMEM without FBS and antibiotics. After starvation, they were treated with 4.0 μg/mL PCSK9 and 4.0 μg/mL PCSK9 + P5 and P5-met peptides (50.0 µM), and vehicle (H2O) for 2 h with at 37 °C under 5% CO2 atmosphere. At the end of the treatment, the culture medium was replaced with 50 μL/well LDL-DyLight™ 550 working solution (Cayman Chemical Company, Ann Arbor, MI, USA) prepared in DMEM without FBS and antibiotics. The cells were additionally incubated for 2 h at 37 °C and then the culture medium was aspirated and replaced with PBS (100 μL/well). The degree of LDL uptake was measured using the Synergy H1 fluorescent plate reader (Winooski, VT, USA) (excitation and emission wavelengths 540 and 570 nm, respectively). Fluorescent LDL-uptake was finally assessed following optimized protocol.

SREBP-2 = experiment: Western blot, SREBP-2 protein level in HepG2 cells; format: cell-based, human; details: HepG2, 50 µM, 24 h, mean ± SD
Procedure: The HepG2 cell line was bought from ATCC (HB-8065, ATCC from LGC Standards, Milan, Italy) and was cultured in DMEM high glucose with stable L-glutamine, supplemented with 10% FBS, 100 U/mL penicillin, 100 µg/mL streptomycin (complete growth medium) with incubation at 37 °C under 5% CO2 atmosphere.
Immunoblotting experiments were performed using optimized protocol. A total of 1.5 × 10^5 HepG2 cells/well (24-well plate) were treated with 50 μM of P5 and P5-met for 24 h. After each treatment, the supernatants were collected and stored at −20°C; cells were scraped in 40 µL ice-cold lysis buffer (RIPA buffer + inhibitor cocktail + 1:100 PMSF + 1:100 Na-orthovanadate + 1:1000 β-mercaptoethanol) and transferred in ice-cold microcentrifuge tubes. […] Total proteins were quantified by the Bradford’s method and 50 μg of total proteins loaded on a pre-cast 7.5% Sodium Dodecyl Sulfate-Polyacrylamide (SDS-PAGE) gel at 130 V for 45 min. […] Target proteins, on milk or BSA blocked membrane, were detected by primary antibodies as follows: anti-SREBP-2, anti-LDLR, anti-HMGCoAR, anti-PCSK9, anti HNF1-α and anti-β-actin. Secondary antibodies conjugated with HRP and a chemiluminescent reagent were used to visualize target proteins and their signal was quantified using the Image Lab Software (Biorad, Hercules, CA, USA). […]

H-LPKHSDAD-OH [Peptide P5-met]
Ability of HepG2 cells to absorb extracellular LDL versus the control (HepG2 cells; HepG2, 50 µM, fluorescent LDL-DyLight 550, without added PCSK9): 181.2 ± 40.1%
LDL uptake by HepG2 cells restored, co-incubation with PCSK9 (HepG2 cells; peptide 50 µM + PCSK9 4 µg/mL, 2 h, % of untreated cells): 104.1 ± 8.5%
SREBP-2 protein level versus the control (SREBP-2): 130.4 ± 16.4%
